What was measured:
[1] = biological target: T1, human FPR2 (Homo sapiens, UniProt P25090); experiment: FPR2 cyclic adenosine monophosphate (cAMP) assay; format: cell-based; details: CHO cells overexpressing human FPR2; forskolin 5 μM; inhibition of cAMP production; HTRF; read-out: hFPR2 cAMP2 EC50
T1 sequence (P25090 1-351): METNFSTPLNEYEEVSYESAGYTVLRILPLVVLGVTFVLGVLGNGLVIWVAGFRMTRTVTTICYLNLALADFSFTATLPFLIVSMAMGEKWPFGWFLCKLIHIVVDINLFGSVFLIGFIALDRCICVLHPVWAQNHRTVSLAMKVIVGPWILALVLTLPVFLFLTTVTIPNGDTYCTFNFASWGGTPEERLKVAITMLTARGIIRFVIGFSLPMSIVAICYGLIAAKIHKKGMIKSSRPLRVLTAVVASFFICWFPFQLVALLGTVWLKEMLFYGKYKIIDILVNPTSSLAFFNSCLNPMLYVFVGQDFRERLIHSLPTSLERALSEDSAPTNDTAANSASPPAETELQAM
How it was run: (§1)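 Gi-coupled activity is read as suppression of forskolin-stimulated cAMP (10 μM final for FPR1, 5 μM final for FPR2; IBMX 200 μM final) in recombinant CHO cells, 30 min incubation at rt, HTRF detection.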

[2] = biological target: T2, human FPR1 (Homo sapiens, UniProt P21462); experiment: FPR1 cyclic adenosine monophosphate (cAMP) assay; format: cell-based; details: CHO cells overexpressing human FPR1; forskolin 10 μM; inhibition of cAMP production; HTRF; read-out: hFPR1 cAMP2 EC50
T2 sequence (P21462 1-350): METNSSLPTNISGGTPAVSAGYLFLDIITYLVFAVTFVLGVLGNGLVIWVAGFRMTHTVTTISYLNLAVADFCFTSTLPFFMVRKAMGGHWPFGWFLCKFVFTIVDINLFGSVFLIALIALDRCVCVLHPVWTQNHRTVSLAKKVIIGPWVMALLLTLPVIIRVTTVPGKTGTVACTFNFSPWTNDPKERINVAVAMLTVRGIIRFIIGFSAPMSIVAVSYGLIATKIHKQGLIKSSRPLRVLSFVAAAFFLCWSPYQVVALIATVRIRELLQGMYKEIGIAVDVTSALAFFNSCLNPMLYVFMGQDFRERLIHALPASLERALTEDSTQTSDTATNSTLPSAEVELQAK
How it was run: as §1

| EC50 [1] | EC50 [2] | SMILES |
| --- | --- | --- |
| 3 nM | > 10000 nM | COc1cc(OCC(C)(CO)CO)nc(-n2c(=O)c(NC(=O)c3ccc(OC(F)F)cc3)c(-c3c(F)cc(OC)cc3F)n2C)c1 [Example 325, N-(5-(2,6-Difluoro-4-methoxyphenyl)-2-(6-(3-hydroxy-2-(hydroxymethyl)-2-methylpropoxy)-4-methoxypyridin-2-yl)-1-methyl-3-oxo-2,3-dihydro-1H-pyrazol-4-yl)-4-(difluoromethoxy)benzamide] |
| 58 nM | 1600 nM | COc1cc(O)nc(-n2c(=O)c(NC(=O)c3ccc(OC(F)F)cc3)c(-c3c(F)cc(OC)cc3F)n2C)c1 [Example 326, N-(5-(2,6-Difluoro-4-methoxyphenyl)-2-(6-hydroxy-4-methoxypyridin-2-yl)-1-methyl-3-oxo-2,3-dihydro-1H-pyrazol-4-yl)-4-(difluoromethoxy)benzamide] |
| 23 nM | 59 nM | COc1cc(F)c(-c2c(NC(=O)c3ccc(OC(F)F)cc3)c(=O)n(-c3cc(OCC4(C)COC4)cc(C)n3)n2C)c(F)c1 [Example 327, N-(5-(2,6-Difluoro-4-methoxyphenyl)-1-methyl-2-(6-methyl-4-((3-methyloxetan-3-yl)methoxy)pyridin-2-yl)-3-oxo-2,3-dihydro-1H-pyrazol-4-yl)-4-(difluoromethoxy)benzamide] |
| 15 nM | 1600 nM | COc1cc(F)c(-c2c(NC(=O)c3ccc(OC(F)F)cc3)c(=O)n(-c3cc(C#N)cc(C)n3)n2C)c(F)c1 [Example 328, N-(2-(4-Cyano-6-methylpyridin-2-yl)-5-(2,6-difluoro-4-methoxyphenyl)-1-methyl-3-oxo-2,3-dihydro-1H-pyrazol-4-yl)-4-(difluoromethoxy)benzamide] |
| 4 nM | > 10000 nM | COc1cc(OCCCO)nc(-n2c(=O)c(NC(=O)c3ccc(OC(F)F)cc3)c(-c3c(F)cc(OC)cc3F)n2C)c1 [Example 329, N-(5-(2,6-Difluoro-4-methoxyphenyl)-2-(6-(3-hydroxypropoxy)-4-methoxypyridin-2-yl)-1-methyl-3-oxo-2,3-dihydro-1H-pyrazol-4-yl)-4-(difluoromethoxy)benzamide] |
| 6 nM | > 10000 nM | COc1cc(F)c(-c2c(NC(=O)c3ccc(OC(F)F)cc3)c(=O)n(-c3cccnc3OC)n2C)c(F)c1 [Example 330, N-(5-(2,6-Difluoro-4-methoxyphenyl)-2-(2-methoxypyridin-3-yl)-1-methyl-3-oxo-2,3-dihydro-1H-pyrazol-4-yl)-4-(difluoromethoxy)benzamide] |
| 3 nM | > 10000 nM | COc1cc(F)c(-c2c(NC(=O)c3ccc(OC(F)F)cc3)c(=O)n(-c3cc(C)cc(OCCO)n3)n2C)c(F)c1 [Example 331, N-(5-(2,6-Difluoro-4-methoxyphenyl)-2-(6-(2-hydroxyethoxy)-4-methylpyridin-2-yl)-1-methyl-3-oxo-2,3-dihydro-1H-pyrazol-4-yl)-4-(difluoromethoxy)benzamide] |
| 3 nM | > 10000 nM | COc1cc(OCCO)nc(-n2c(=O)c(NC(=O)c3ccc(OC(F)F)cc3)c(-c3c(F)cc(OC)cc3F)n2C)c1 [Example 332, N-(5-(2,6-Difluoro-4-methoxyphenyl)-2-(6-(2-hydroxyethoxy)-4-methoxypyridin-2-yl)-1-methyl-3-oxo-2,3-dihydro-1H-pyrazol-4-yl)-4-(difluoromethoxy)benzamide] |
| 14 nM | 1300 nM | COc1cc(F)c(-c2c(NC(=O)c3ccc(OC(F)F)cc3)c(=O)n(-c3cccc(OCCO)n3)n2C)c(F)c1 [Example 333, N-(5-(2,6-Difluoro-4-methoxyphenyl)-2-(6-(2-hydroxyethoxy)pyridin-2-yl)-1-methyl-3-oxo-2,3-dihydro-1H-pyrazol-4-yl)-4-(difluoromethoxy)benzamide] |
| 3 nM | > 10000 nM | COc1cc(OCCS(C)(=O)=O)nc(-n2c(=O)c(NC(=O)c3ccc(OC(F)F)cc3)c(-c3c(F)cc(OC)cc3F)n2C)c1 [Example 335, N-(5-(2,6-Difluoro-4-methoxyphenyl)-2-(4-methoxy-6-(2-(methylsulfonyl)ethoxy)pyridin-2-yl)-1-methyl-3-oxo-2,3-dihydro-1H-pyrazol-4-yl)-4-(difluoromethoxy)benzamide] |
| 24 nM | > 10000 nM | COc1cc(F)c(-c2c(NC(=O)c3ccc(OC(F)F)cc3)c(=O)n(-c3cc(CO)cc(OCCO)n3)n2C)c(F)c1 [Example 336, N-(5-(2,6-Difluoro-4-methoxyphenyl)-2-(6-(2-hydroxyethoxy)-4-(hydroxymethyl)pyridin-2-yl)-1-methyl-3-oxo-2,3-dihydro-1H-pyrazol-4-yl)-4-(difluoromethoxy)benzamide] |
| 15 nM | > 10000 nM | COc1cc(OCC2CCS(=O)(=O)CC2)nc(-n2c(=O)c(NC(=O)c3ccc(OC(F)F)cc3)c(-c3c(F)cc(OC)cc3F)n2C)c1 [Example 337, N-(5-(2,6-Difluoro-4-methoxyphenyl)-2-(6-((1,1-dioxidotetrahydro-2H-thiopyran-4-yl)methoxy)-4-methoxypyridin-2-yl)-1-methyl-3-oxo-2,3-dihydro-1H-pyrazol-4-yl)-4-(difluoromethoxy)benzamide] |
| 2 nM | > 10000 nM | COc1cc(C2CCCN(CCO)C2)nc(-n2c(=O)c(NC(=O)c3ccc(OC(F)F)cc3)c(-c3c(F)cc(OC)cc3F)n2C)c1 (stereo not shown) [Example 338, N-(5-(2,6-Difluoro-4-methoxyphenyl)-2-(6-(1-(2-hydroxyethyl)piperidin-3-yl)-4-methoxypyridin-2-yl)-1-methyl-3-oxo-2,3-dihydro-1H-pyrazol-4-yl)-4-(difluoromethoxy)benzamide] |
| 8 nM | > 10000 nM | COc1cc(OCC2CCCO2)nc(-n2c(=O)c(NC(=O)c3ccc(OC(F)F)cc3)c(-c3c(F)cc(OC)cc3F)n2C)c1 (stereo not shown) [Example 339, N-(5-(2,6-Difluoro-4-methoxyphenyl)-2-(4-methoxy-6-((tetrahydrofuran-2-yl)methoxy)pyridin-2-yl)-1-methyl-3-oxo-2,3-dihydro-1H-pyrazol-4-yl)-4-(difluoromethoxy)benzamide] |
| 10 nM | > 10000 nM | COc1cc(C2CCCN(CCO)C2)nc(-n2c(=O)c(NC(=O)c3ccc(OC(F)F)cc3)c(-c3c(F)cc(OC)cc3F)n2C)c1 (stereo not shown) [Example 340, N-(5-(2,6-Difluoro-4-methoxyphenyl)-2-(6-(1-(2-hydroxyethyl)piperidin-3-yl)-4-methoxypyridin-2-yl)-1-methyl-3-oxo-2,3-dihydro-1H-pyrazol-4-yl)-4-(difluoromethoxy)benzamide] |
| 10 nM | 2600 nM | COc1cc(F)c(-c2c(NC(=O)c3ccc(OC(F)F)cc3)c(=O)n(-c3cc(C#N)cc(C(F)(F)F)n3)n2C)c(F)c1 [Example 341, N-(2-(4-Cyano-6-(trifluoromethyl)pyridin-2-yl)-5-(2,6-difluoro-4-methoxyphenyl)-1-methyl-3-oxo-2,3-dihydro-1H-pyrazol-4-yl)-4-(difluoromethoxy)benzamide] |
| 2 nM | > 10000 nM | COc1cc(C2CCCN(C)C2)nc(-n2c(=O)c(NC(=O)c3ccc(OC(F)F)cc3)c(-c3c(F)cc(OC)cc3F)n2C)c1 (stereo not shown) [Example 342, N-(5-(2,6-Difluoro-4-methoxyphenyl)-2-(4-methoxy-6-(1-methylpiperidin-3-yl)pyridin-2-yl)-1-methyl-3-oxo-2,3-dihydro-1H-pyrazol-4-yl)-4-(difluoromethoxy)benzamide] |
| 1 nM | > 10000 nM | COc1cc(C2CCCN(C)C2)nc(-n2c(=O)c(NC(=O)c3ccc(OC(F)F)cc3)c(-c3c(F)cc(OC)cc3F)n2C)c1 (stereo not shown) [Example 343, N-(5-(2,6-Difluoro-4-methoxyphenyl)-2-(4-methoxy-6-(1-methylpiperidin-3-yl)pyridin-2-yl)-1-methyl-3-oxo-2,3-dihydro-1H-pyrazol-4-yl)-4-(difluoromethoxy)benzamide] |
| 2 nM | 2400 nM | COc1cc(OCC2(C)COC2)nc(-n2c(=O)c(NC(=O)c3ccc(OC(F)F)cc3)c(-c3c(F)cc(OC)cc3F)n2C)c1 [Example 344, N-(5-(2,6-Difluoro-4-methoxyphenyl)-2-(4-methoxy-6-((3-methyloxetan-3-yl)methoxy)pyridin-2-yl)-1-methyl-3-oxo-2,3-dihydro-1H-pyrazol-4-yl)-4-(difluoromethoxy)benzamide] |
| 5 nM | > 10000 nM | COc1cc(C2CCOCC2)nc(-n2c(=O)c(NC(=O)c3ccc(OC(F)F)cc3)c(-c3c(F)cc(OC)cc3F)n2C)c1 [Example 345, N-(5-(2,6-Difluoro-4-methoxyphenyl)-2-(4-methoxy-6-(tetrahydro-2H-pyran-4-yl)pyridin-2-yl)-1-methyl-3-oxo-2,3-dihydro-1H-pyrazol-4-yl)-4-(difluoromethoxy)benzamide] |

From patent US12577206B2 (BRISTOL-MYERS SQUIBB COMPANY, priority 2020, dated 2026)
